Patent publication EP0346929B1, “Treating agent for Raynaud's disease” (DAIICHI PHARMACEUTICAL CO., LTD., priority 1988, dated 1989)
Structures can show the parent of a compound that is named as a salt.

Test system: Laurate-Induced Peripheral Arterial Occlusive Diseases in Rats
Assay: Effect on progression of laurate-induced peripheral arterial occlusive diseases in rats
Format: in vivo
Method: Effect on Progression of Laurate-Induced Peripheral Arterial Occlusive Diseases in Rats
Male Wister-Imamichi rats weighing from 370 to 422 g (purchased from Dobutsu Hanshoku Kenkyukai) were used as test animals.
Rats were anesthetized with pentobarbital (50 mg/kg, i.p.), and the right femoral artery was exposed by surgical incision. 0.1 mℓ of a sodium laurate solution (1 mg of lauric acid/mℓ-saline, pH=8.0) was injected to the right femoral artery, haemostasis was secured by application of a surgical binding "Alonalpha" (a trade name, produced by Toa Gosei Kagaku Co.) to the punctured site of the artery, and the incision was closed with the surgical binding. The animals were then fed ad lib.
The degree of the lesions was graded to 0 - IV, 4 days after the operation for gangrene and 6 days after the operation for mummification or falling off as follows: normal apperance, 0; the affected region was limited to the nail parts, I; to the fingers, II; to the whole paw, III; and extended to the lower leg, IV.
As a test compound, 6-(1-imidazolylmethyl)-5,6,7,8-tetrahydronaphthalene-2-carboxylic acid hydrochloride 1/2 hydrate (hereinafter referred to as Compound A) was dissolved in physiological saline and administered to the left femoral vein at a dose of 3 mg/5 mℓ/kg 5 minutes before the laurate injection to the femoral artery. The effect of the Compound A on suppression of the lesions were examined. The animals in control group were injected with 5 mℓ/kg of saline alone in place of the Compound A. The results obtained are shown in Table 1 below.

Q: `O=C(O)c1ccc2c(c1)CCC(Cn1ccnc1)C2` (centres unmarked) [Compound A, 6-(1-imidazolylmethyl)-5,6,7,8-tetrahydronaphthalene-2-carboxylic acid hydrochloride 1/2 hydrate] was tested. Which “Number of Animals Suffering From: Gangrene After 4 Days, grade 0” value (grade 0 = normal apperance, 3 mg/5 mℓ/kg into left femoral vein 5 minutes before laurate injection, 4 days after operation) did it give?
A: 2

Q: What about the “Number of Animals Suffering From: Mummification or Falling Off After 6 Days, grade 0” value (grade 0 = normal apperance, 3 mg/5 mℓ/kg into left femoral vein 5 minutes before laurate injection, 6 days after operation) of the same molecule?
A: 2

Q: And the “Number of Animals Suffering From: Gangrene After 4 Days, grade I” value (grade I = affected region limited to the nail parts, 3 mg/5 mℓ/kg into left femoral vein 5 minutes before laurate injection, 4 days after operation)?
A: 3

Q: And the “Number of Animals Suffering From: Mummification or Falling Off After 6 Days, grade I” value (grade I = affected region limited to the nail parts, 3 mg/5 mℓ/kg into left femoral vein 5 minutes before laurate injection, 6 days after operation)?
A: 1

Q: What about the “Number of Animals Suffering From: Gangrene After 4 Days, grade II” value (grade II = affected region limited to the fingers, 3 mg/5 mℓ/kg into left femoral vein 5 minutes before laurate injection, 4 days after operation) of the same molecule?
A: 2

Q: And the “Number of Animals Suffering From: Mummification or Falling Off After 6 Days, grade II” value (grade II = affected region limited to the fingers, 3 mg/5 mℓ/kg into left femoral vein 5 minutes before laurate injection, 6 days after operation)?
A: 3

Q: And the “Number of Animals Suffering From: Mummification or Falling Off After 6 Days, grade III” value (grade III = affected region limited to the whole paw, 3 mg/5 mℓ/kg into left femoral vein 5 minutes before laurate injection, 6 days after operation)?
A: 1

Q: What about the grade of lesions (intravenous injection of 3 mg/kg, compared with control group) of the same molecule?
A: reduced the grade of lesions
